Data from the supplement of paper PMC11061612.

How the values were obtained:
Assay in all cases: Bliss excess, mean over the matrix (fraction); higher = more synergy
42-MG-BA (Glioblastoma) = tested on: 42-MG-BA (Glioblastoma)
Procedure, shortened: (§1)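 Cell lines in DMEM/F12 or RPMI with 10% FBS were plated in 1536-well plates, held 24 hours at 37°C, 5% CO2, then given two-drug dose matrices for 72 hours (DMSO typically 0.2%). Viability was read by CellTiter-Glo 2.0 luminescence and scaled as inhibition from 0 (vehicle wells) to 1 (blank wells). Combination Emax is the second-highest inhibition in the matrix; Bliss excess is observed combination effect minus expected EA + EB − EA·EB, EA and EB being single-agent effects.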

AGS (Gastric Carcinoma) = tested on: AGS (Gastric Carcinoma)
Procedure, shortened: as §1

[1] = tested on: COLO-205 (Colorectal Carcinoma)
Procedure, shortened: as §1

[2] = tested on: CaR-1 (Colorectal Carcinoma)
Procedure, shortened: as §1

[3] = tested on: Calu-3 (Lung Adenocarcinoma)
Procedure, shortened: as §1

[4] = tested on: DEL (T-Cell Non-Hodgkin's Lymphoma)
Procedure, shortened: as §1

[5] = tested on: Daoy (Other Solid Carcinomas)
Procedure, shortened: as §1

[6] = tested on: DoTc2-4510 (Cervical Carcinoma)
Procedure, shortened: as §1

[7] = tested on: HO-1-N-1 (Oral Cavity Carcinoma)
Procedure, shortened: as §1

[8] = tested on: HT-1376 (Bladder Carcinoma)
Procedure, shortened: as §1

[9] = tested on: HuP-T4 (Pancreatic Carcinoma)
Procedure, shortened: as §1

[10] = tested on: KURAMOCHI (Ovarian Carcinoma)
Procedure, shortened: as §1

[11] = tested on: MDA-MB-361 (Breast Carcinoma)
Procedure, shortened: as §1

NB10 (Neuroblastoma) = tested on: NB10 (Neuroblastoma)
Procedure, shortened: as §1

[12] = tested on: NCI-H2085 (Non-Small Cell Lung Carcinoma)
Procedure, shortened: as §1

NOS-1 (Osteosarcoma) = tested on: NOS-1 (Osteosarcoma)
Procedure, shortened: as §1

[13] = tested on: TCCSUP (Bladder Carcinoma)
Procedure, shortened: as §1

[14] = tested on: TE-15 (Esophageal Squamous Cell Carcinoma)
Procedure, shortened: as §1

[15] = tested on: TE-9 (Esophageal Squamous Cell Carcinoma)
Procedure, shortened: as §1

[16] = tested on: UM-UC-3 (Bladder Carcinoma)
Procedure, shortened: as §1

Compound | Bliss excess (42-MG-BA (Glioblastoma)) | Bliss excess (AGS (Gastric Carcinoma)) | Bliss excess [1] | Bliss excess [2] | Bliss excess [3] | Bliss excess [4] | Bliss excess [5] | Bliss excess [6] | Bliss excess [7] | Bliss excess [8] | Bliss excess [9] | Bliss excess [10] | Bliss excess [11] | Bliss excess (NB10 (Neuroblastoma)) | Bliss excess [12] | Bliss excess (NOS-1 (Osteosarcoma)) | Bliss excess [13] | Bliss excess [14] | Bliss excess [15] | Bliss excess [16]
COc1cccc(OCCCN)c1-c1cc(Nc2cnc(C#N)cn2)n[nH]1 [Prexasertib] + CN(C)CCCOc1ccc(-c2ccc3ncc4c(c3c2)n(C2CCOCC2)c(=O)n4C)cn1 [AZD0156] (first compound max 1 µM, 7x7, partner max 1 µM) | 0.023 | -0.0052 | 0.061 | -0.0442 | -0.0668 | -0.0201 | 0.0208 | -0.0208 | -0.0077 | -0.007 | -0.0273 | -0.0425 | 0.0014 | 0.015 | 0.006 | 0.0551 | -0.0021 | -0.0346 | -0.0307 | -0.0174
COc1cccc(OCCCN)c1-c1cc(Nc2cnc(C#N)cn2)n[nH]1 [Prexasertib] + C[C@@H]1COCCN1C2=NC(=NC(=C2)C3(CC3)[S@](=N)(=O)C)C4=C5C=CNC5=NC=C4 [AZD6738] (first compound max 1 µM, 7x7, partner max 10 µM) | -0.0994 | 0.0164 | 0.0369 | 0.0097 | -0.0108 | 0.001 | 0.0032 | -0.0218 | 0.0115 | -0.0105 | -0.0504 | -0.0707 | -0.018 | -0.0145 | -0.0092 | 0.0721 | -0.0245 | -0.0395 | -0.0233 | 0.0563
COc1cccc(OCCCN)c1-c1cc(Nc2cnc(C#N)cn2)n[nH]1 [Prexasertib] + Cc1cc2ncnn2cc1Nc1ncc2c(n1)n(C1CCOCC1)c(=O)n2C [AZD7648] (first compound max 1 µM, 7x7, partner max 10 µM) | -0.0574 | -0.018 | 0.0227 | 0.0141 | 0.0049 | -0.0097 | -0.009 | 0.0159 | 0.0096 | -0.0373 | 0.0127 | -0.0628 | -0.0196 | -0.0407 | -0.0481 | 0.0514 | -0.0182 | -0.0105 | -0.0322 | -0.0198
COc1cccc(OCCCN)c1-c1cc(Nc2cnc(C#N)cn2)n[nH]1 [Prexasertib] + O=C(c1cc(Cc2n[nH]c(=O)c3ccccc23)ccc1F)N1CCN(C(=O)C2CC2)CC1 [Olaparib] (first compound max 1 µM, 7x7, partner max 10 µM) | -0.0399 | 0.0033 | -0.0301 | -0.0635 | -0.0558 | 0.0035 | 0.0261 | -0.0041 | 0.0205 | -0.0976 | -0.0834 | -0.0891 | -0.0509 | -0.0272 | -0.208 | 0.0177 | -0.006 | -0.0427 | -0.0425 | -0.0015
COc1cc2c(cc1OCCCCCOc1cc3c(cc1OC)C(=O)N1C=C(C)C[C@H]1C=N3)N=C[C@@H]1CC(C)=CN1C2=O [SG3199] + O=C(c1cc(Cc2n[nH]c(=O)c3ccccc23)ccc1F)N1CCN(C(=O)C2CC2)CC1 [Olaparib] (first compound max 0.001 µM, 7x7, partner max 10 µM) | 0.0075 | -0.0061 | -0.0256 | -0.0429 | -0.0266 | 0.0108 | -0.0171 | -0.0123 | -0.0138 | -0.0503 | -0.0256 | -0.0693 | -0.035 | -0.0067 | -0.0323 | -0.0275 | -0.0281 | -0.0307 | -0.0269 | -0.0308
CCc1c2c(nc3ccc(O)cc13)-c1cc3c(c(=O)n1C2)COC(=O)[C@]3(O)CC [SN-38] + CN(C)CCCOc1ccc(-c2ccc3ncc4c(c3c2)n(C2CCOCC2)c(=O)n4C)cn1 [AZD0156] (first compound max 0.3 µM, 7x7, partner max 1 µM) | 0.0561 | -0.0061 | 0.0073 | 0.0109 | 0.0092 | 0.117 | 0.0666 | 0.0091 | 0.0488 | -0.0547 | 0.0028 | 0.0421 | -0.063 | -0.0533 | -0.0026 | -0.0111 | 0.0859 | 0.0146 | 0.0065 | 0.06
C[C@@H](c1ccc2nccn2c1)n1nnc2ncc(-c3cnn(C)c3)nc21 [Savolitinib] + CC1(C)CCC(CN2CCN(c3ccc(C(=O)NS(=O)(=O)c4ccc(NCC5CCOCC5)c([N+](=O)[O-])c4)c(Oc4cnc5[nH]ccc5c4)c3)CC2)=C(c2ccc(Cl)cc2)C1 [Venetoclax] (first compound max 1 µM, 7x7, partner max 1 µM) | -0.04 | -0.0729 | -0.0675 | -0.0617 | -0.0347 | -0.0385 | -0.0185 | -0.0601 | -0.0105 | -0.0443 | -0.0575 | -0.0274 | -0.0349 | -0.0389 | -0.0364 | -0.05 | -0.0551 | -0.0227 | -0.0307 | -0.0574
C[C@@H](c1ccc2nccn2c1)n1nnc2ncc(-c3cnn(C)c3)nc21 [Savolitinib] + Cc1c2c(nn1C)CSCc1cc(n(C)n1)CSc1cc(c3ccccc3c1)OCCCc1c(C(=O)O)n(C)c3c-2c(Cl)ccc13 [AZD5991] (first compound max 1 µM, 7x7, partner max 1 µM) | -0.0633 | -0.0855 | -0.0386 | -0.0725 | -0.021 | -0.0441 | -0.0141 | -0.0204 | -0.0373 | -0.0206 | -0.0618 | -0.0332 | -0.0841 | -0.0278 | -0.0401 | -0.059 | -0.0262 | -0.0511 | -0.0683 | -0.0161
Cn1cnc2c(F)c(Nc3ccc(Br)cc3Cl)c(C(=O)NOCCO)cc21 [Selumetinib] + C=CCn1c(=O)c2cnc(Nc3ccc(N4CCN(C)CC4)cc3)nc2n1-c1cccc(C(C)(C)O)n1 [AZD1775] (first compound max 10 µM, partner max 1 µM) | -0.0509 | 0.0064 | -0.0256 | -0.0218 | -0.0405 | -0.043 | -0.0443 | -0.0164 | -0.0206 | -0.0093 | 0.0161 | 0.0427 | -0.053 | -0.0125 | -0.0751 | 0.0355 | -0.0432 | -0.0299 | -0.0343 | -0.0187
Cn1cnc2c(F)c(Nc3ccc(Br)cc3Cl)c(C(=O)NOCCO)cc21 [Selumetinib] + CC(C)n1c(=O)n(C)c2cnc3cc(F)c(-c4ccc(OCCCN5CCCCC5)nc4)cc3c21 [AZD1390] (first compound max 10 µM, 7x7, partner max 0.3 µM) | -0.0321 | -0.0446 | -0.0209 | -0.041 | -0.023 | 0.0087 | -0.021 | -0.0401 | 0.0053 | -0.0416 | -0.0086 | -0.055 | -0.044 | -0.0323 | -0.06 | 0.0117 | -0.0588 | -0.0359 | -0.0228 | -0.0205
Cn1cnc2c(F)c(Nc3ccc(Br)cc3Cl)c(C(=O)NOCCO)cc21 [Selumetinib] + CCN(CCO)CCCOc1ccc2c(Nc3cc(CC(=O)Nc4cccc(F)c4)[nH]n3)ncnc2c1 [AZD2811] (first compound max 10 µM, 7x7, partner max 1 µM) | -0.0458 | 0.11 | -0.0081 | 0.0301 | -0.0353 | 0.263 | 0.012 | -0.0098 | -0.0692 | -0.0488 | -0.0161 | -0.0203 | -0.004 | -0.0402 | -0.0589 | -0.0092 | -0.0822 | -0.0741 | -0.0347 | -0.048
Cn1cnc2c(F)c(Nc3ccc(Br)cc3Cl)c(C(=O)NOCCO)cc21 [Selumetinib] + C[C@@H]1COCCN1C2=NC(=NC(=C2)C3(CC3)[S@](=N)(=O)C)C4=C5C=CNC5=NC=C4 [AZD6738] (first compound max 10 µM, 7x7, partner max 10 µM) | -0.0061 | 0.0281 | 0.0526 | -0.069 | -0.0295 | 0.0172 | -0.0087 | -0.0282 | -0.0475 | -0.021 | 0.0891 | 0.0517 | -0.0396 | -0.0247 | -0.0063 | 0.043 | -0.0141 | 0.0391 | -0.0063 | 0.0057
CC(=O)Nc1cccc(-n2c(=O)n(C3CC3)c(=O)c3c(Nc4ccc(I)cc4F)n(C)c(=O)c(C)c32)c1 [Trametinib] + Cc1nc(-c2cn3c(n2)-c2ccc(-c4cnn(C(C)(C)C(N)=O)c4)cc2OCC3)n(C(C)C)n1 [Taselisib] (first compound max 1 µM, 7x7, partner max 10 µM) | 0.0593 | 0.122 | 0.0229 | 0.0783 | 0.162 | 0.166 | 0.0146 | 0.143 | 0.268 | 0.0546 | 0.241 | 0.115 | 0.0263 | 0.118 | 0.0062 | 0.191 | 0.0896 | 0.0816 | 0.073 | 0.137
CC1(C)CCC(CN2CCN(c3ccc(C(=O)NS(=O)(=O)c4ccc(NCC5CCOCC5)c([N+](=O)[O-])c4)c(Oc4cnc5[nH]ccc5c4)c3)CC2)=C(c2ccc(Cl)cc2)C1 [Venetoclax] + C1CN(CCC1(C(=O)N[C@@H](CCO)C2=CC=C(C=C2)Cl)N)C3=NC=NC4=C3C=CN4 [Capivasertib] (first compound max 1 µM, 7x7, partner max 3 µM) | -0.0239 | -0.0406 | -0.0423 | -0.0045 | -0.0116 | -0.0589 | 0.0117 | -0.0185 | -0.0176 | -0.0621 | -0.033 | -0.0538 | 0.0068 | -0.0808 | -0.0569 | -0.0157 | -0.0196 | -0.0429 | -0.0114 | 0.0009
CC1(C)CCC(CN2CCN(c3ccc(C(=O)NS(=O)(=O)c4ccc(NCC5CCOCC5)c([N+](=O)[O-])c4)c(Oc4cnc5[nH]ccc5c4)c3)CC2)=C(c2ccc(Cl)cc2)C1 [Venetoclax] + C=CCn1c(=O)c2cnc(Nc3ccc(N4CCN(C)CC4)cc3)nc2n1-c1cccc(C(C)(C)O)n1 [AZD1775] (first compound max 1 µM, partner max 1 µM) | -0.0687 | -0.0506 | -0.0661 | -0.0159 | -0.0074 | -0.027 | -0.0683 | 0.0075 | 0.0912 | -0.0226 | -0.0443 | 0.0572 | 0.0331 | -0.0113 | -0.063 | 0.0193 | -0.055 | -0.0737 | 0.0674 | -0.0225
